Test results from PMC9090415, “Discovery of small molecule inhibitors of Plasmodium falciparum apicoplast DNA polymerase” (Journal of Enzyme Inhibition and Medicinal Chemistry, 2022).

Target: P. falciparum apicoplast DNA polymerase (Pf-apPOL) (Plasmodium falciparum, UniProt Q8ILY1)
Assay: Fluorescence-based high-throughput DNA polymerase assay (molecular beacon), primary screen and dose-response
Type: biochemical
Procedure: The HT assay employs a molecular beacon, a stem-loop DNA template with a Cy3 dye and the Black Hole Quencher on the 3′ and 5′ ends of the DNA, respectively. Pf-apPOL concentration is based on a calculated absorptivity of ε280 = 56750 M^−1 cm^−1. Reactions were carried out at 25 °C, using Corning 3575 […] (well-volume, 20 µL). Assays testing for compound inhibition composed of reaction buffer (pH 7.9 in 50 mM potassium acetate, 20 mM Tris-acetate and 10 mM magnesium acetate), Pf-apPOL (20 nM), DNA substrate (20 nM), dNTPs (6 µM), and compound (10 µM in DMSO). The DNA and nucleotide substrates (dNTPs) were at concentrations of 20 nM and 6 µM, respectively, in the assay. Pf-apPOL was incubated in the reaction buffer with dNTPs and the compound of interest (10 µM, in the assay) at 25 °C for 10 min. The DNA substrate was then added and the reaction was allowed to proceed for 90 min at 25 °C.
Each assay plate contained 16 negative controls (no Pf-apPOL, DMSO present) and 16 positive controls (Pf-apPOL present, no DMSO). The fluorescence of each well was determined using a BioTek Synergy Neo fluorescence plate reader using excitation and emission wavelengths of 555 and 570 nm, respectively.
In the above, Min is the average of fluorescence emission of the negative controls (substrate only), Max the average fluorescence emission from the positive controls (enzyme + substrate), and Test the emission from the assays in the presence of compounds (enzyme + compound + substrates). […] […] The IC50 of each compound was determined using Equation (2): (2) IC50= Vmax/(1+ (I/IC50)^n)
In the above, n measures cooperativity, with n > 1 indicating synergistic binding of more than a single molecule of the compound.
To identify apPOL inhibitors we utilised our previously developed high-throughput DNA polymerase assay. The HT assay is based on a molecular beacon DNA template that forms a stem-loop with a Cy3 dye and the Black Hole Quencher on the 3′ and 5′ ends of the DNA, respectively. DNA polymerase activity extends an annealed primer through the stem region, displacing the fluorophore from the quencher, thereby increasing its fluorescence (Figure 1(A)). The assay accurately recapitulates the kinetic behaviour of apPOL, as measured through more conventional low-throughput gel-based assays. The Z′ factor for the assay described here was 0.9 across all plates (data not shown).
Figure 1. High-throughput screening. (A) The fluorescent-based DNA polymerase assay used to screen the compound libraries. The DNA template strand is a hairpin loop with a primer annealed to the loop. The 3’ end of the primer is 11 bases away from the 6 bp duplex. Strand displacement activity of the DNA polymerase separates the Cy3 dye from the Black hole quencher leading to an increase in fluorescent signal. (B) The high-throughput assay workflow. The DNA polymerase is incubated with […] compound for 10 min prior to addition of the hairpin substrate. The reaction is quenched at 3 different time points and the fluorescent signal is measured and % inhibition is determined using the provided equation.

Chain of P. falciparum apicoplast DNA polymerase (Pf-apPOL) (Q8ILY1 entry or part of it): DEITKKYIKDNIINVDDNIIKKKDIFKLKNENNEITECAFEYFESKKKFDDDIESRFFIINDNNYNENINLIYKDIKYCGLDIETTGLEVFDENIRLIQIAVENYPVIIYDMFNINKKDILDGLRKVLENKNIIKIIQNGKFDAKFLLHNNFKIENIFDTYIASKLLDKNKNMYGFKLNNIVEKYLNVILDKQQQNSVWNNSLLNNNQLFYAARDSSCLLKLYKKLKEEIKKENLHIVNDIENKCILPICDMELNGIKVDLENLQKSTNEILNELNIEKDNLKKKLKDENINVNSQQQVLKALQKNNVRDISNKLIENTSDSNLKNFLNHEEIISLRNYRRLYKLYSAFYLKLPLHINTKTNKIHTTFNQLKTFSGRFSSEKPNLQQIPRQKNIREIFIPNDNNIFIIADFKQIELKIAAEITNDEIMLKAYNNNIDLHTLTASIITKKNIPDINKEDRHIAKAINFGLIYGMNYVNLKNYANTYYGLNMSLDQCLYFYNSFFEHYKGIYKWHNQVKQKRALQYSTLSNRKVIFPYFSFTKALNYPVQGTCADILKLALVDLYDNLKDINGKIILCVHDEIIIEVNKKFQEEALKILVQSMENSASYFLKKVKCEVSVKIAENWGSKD

For `O=[N+]([O-])/C=C/c1ccc(-c2ccc(Br)cc2)o1` [Molecule 31, O=N(=O)/C=C/c1ccc(o1)c1ccc(cc1)Br], the “% inhibition Apo pol 10'” value (DRC-1; 10'; concentration 2.5) was 11.7941%, the “% inhibition Apo pol 10'” value (DRC-1; 10'; concentration 5) was 25.8836% and the “% inhibition Apo pol 10'” value (DRC-1; 10'; concentration 10) was 48.5342%. The “% inhibition Apo pol 10'” value (DRC-1; 10'; concentration 20) was 74.9493%, the “% inhibition Apo pol 10'” value (DRC-1; 10'; concentration 40) was 80.1629% and the “% inhibition Apo pol 10'” value (DRC-1; 10'; concentration 80) was 73.881%. The “% inhibition Apol 90'” value (DRC-1; 90'; concentration 2.5) was 4.734%, the “% inhibition Apol 90'” value (DRC-1; 90'; concentration 5) was 14.8546% and the “% inhibition Apol 90'” value (DRC-1; 90'; concentration 10) was 35.3896%. The “% inhibition Apol 90'” value (DRC-1; 90'; concentration 20) was 66.0417%, the “% inhibition Apol 90'” value (DRC-1; 90'; concentration 40) was 79.0677% and the “% inhibition Apol 90'” value (DRC-1; 90'; concentration 80) was 80.1627%. For the same molecule, the “% inhibition apPOL 180'” value (DRC-1; 180'; concentration 2.5) was -3.116%, the “% inhibition apPOL 180'” value (DRC-1; 180'; concentration 5) was 3.824% and the “% inhibition apPOL 180'” value (DRC-1; 180'; concentration 10) was 20.4945%. For the same molecule, the “% inhibition apPOL 180'” value (DRC-1; 180'; concentration 20) was 51.8012%, the “% inhibition apPOL 180'” value (DRC-1; 180'; concentration 40) was 73.5889% and the “% inhibition apPOL 180'” value (DRC-1; 180'; concentration 80) was 81.6814%. For the same molecule, the “% inhibition Apo pol 5'” value (DRC-2, 5', concentration 10 (unit not given)) was 31%, the “% inhibition Apol 40'” value (DRC-2, 40', concentration 10 (unit not given)) was 48% and the “% inhibition Apol 40'” value (DRC-2, 40', concentration 20 (unit not given)) was 53%. For the same molecule, the “% inhibition Apol 40'” value (DRC-2, 40', concentration 80 (unit not given)) was 48%, the “% inhibition ApPOL 90'” value (DRC-2, 90', concentration 5 (unit not given)) was 31% and the “% inhibition ApPOL 90'” value (DRC-2, 90', concentration 10 (unit not given)) was 48%. For the same molecule, the “% inhibition apPOL 180'” value (DRC-2, 180', concentration 5 (unit not given)) was 21%, the “% inhibition apPOL 180'” value (DRC-2, 180', concentration 20 (unit not given)) was 53% and the “% inhibition Apo pol 5'” value (DRC-2; 5'; concentration 2.5) was 3.31%. For the same molecule, the “% inhibition Apo pol 5'” value (DRC-2; 5'; concentration 5) was 21%, the “% inhibition Apo pol 5'” value (DRC-2; 5'; concentration 5 (unit not given)) was 21% and the “% inhibition Apo pol 5'” value (DRC-2; 5'; concentration 10) was 31%. The “% inhibition Apo pol 5'” value (DRC-2; 5'; concentration 20) was 26%, the “% inhibition Apo pol 5'” value (DRC-2; 5'; concentration 40) was 18% and the “% inhibition Apo pol 5'” value (DRC-2; 5'; concentration 80) was 2.17%. For the same molecule, the “% inhibition Apol 40'” value (DRC-2; 40'; concentration 2.5) was 6%, the “% inhibition Apol 40'” value (DRC-2; 40'; concentration 5) was 33% and the “% inhibition Apol 40'” value (DRC-2; 40'; concentration 10) was 48%. The “% inhibition Apol 40'” value (DRC-2; 40'; concentration 20) was 53%, the “% inhibition Apol 40'” value (DRC-2; 40'; concentration 40) was 54% and the “% inhibition Apol 40'” value (DRC-2; 40'; concentration 80) was 48%. The “% inhibition ApPOL 90'” value (DRC-2; 90'; concentration 2.5) was 4%, the “% inhibition ApPOL 90'” value (DRC-2; 90'; concentration 5) was 31% and the “% inhibition ApPOL 90'” value (DRC-2; 90'; concentration 10) was 48%. The “% inhibition ApPOL 90'” value (DRC-2; 90'; concentration 20) was 56%, the “% inhibition ApPOL 90'” value (DRC-2; 90'; concentration 40) was 60% and the “% inhibition ApPOL 90'” value (DRC-2; 90'; concentration 80) was 59%. The “% inhibition apPOL 180'” value (DRC-2; 180'; concentration 2.5) was -3.28%, the “% inhibition apPOL 180'” value (DRC-2; 180'; concentration 5) was 21% and the “% inhibition apPOL 180'” value (DRC-2; 180'; concentration 10) was 39%. For the same molecule, the “% inhibition apPOL 180'” value (DRC-2; 180'; concentration 20) was 53%, the “% inhibition apPOL 180'” value (DRC-2; 180'; concentration 40) was 62% and the “% inhibition apPOL 180'” value (DRC-2; 180'; concentration 80) was 66%. For the same molecule, the “DNA Pol” value (primary screen value of the 186 hits; unit not given; 90 min, 10 µM) was 57 and the “DNA Pol” value (primary screen value, head "DNA Pol", unit not given; 90 min, 10 µM) was 57.

For `O=C(Nc1ncc([N+](=O)[O-])s1)c1ccc2c(c1)C(=O)N(N1C(=O)c3ccccc3C1=O)C2=O` [KU0026378], the “DNA Pol” value ('DNA Pol'; screening value, unit not given; 90 min, 10 µM) was 40, the “% inhibition Apo pol 10'” value (DRC-1; 10'; concentration 2.5) was 7.75% and the “% inhibition Apo pol 10'” value (DRC-1; 10'; concentration 5) was 18.061%. The “% inhibition Apo pol 10'” value (DRC-1; 10'; concentration 10) was 26.4428%, the “% inhibition Apo pol 10'” value (DRC-1; 10'; concentration 20) was 47.1491% and the “% inhibition Apo pol 10'” value (DRC-1; 10'; concentration 40) was 69.5136%. The “% inhibition Apo pol 10'” value (DRC-1; 10'; concentration 80) was 81.7904%, the “% inhibition Apol 90'” value (DRC-1; 90'; concentration 2.5) was 0.8654% and the “% inhibition Apol 90'” value (DRC-1; 90'; concentration 5) was 10.2523%. For the same molecule, the “% inhibition Apol 90'” value (DRC-1; 90'; concentration 10) was 17.1111%, the “% inhibition Apol 90'” value (DRC-1; 90'; concentration 20) was 31.377% and the “% inhibition Apol 90'” value (DRC-1; 90'; concentration 40) was 49.9666%. The “% inhibition Apol 90'” value (DRC-1; 90'; concentration 80) was 63.8905%, the “% inhibition apPOL 180'” value (DRC-1; 180'; concentration 2.5) was -2.09% and the “% inhibition apPOL 180'” value (DRC-1; 180'; concentration 5) was 6.201%. The “% inhibition apPOL 180'” value (DRC-1; 180'; concentration 10) was 13.1954%, the “% inhibition apPOL 180'” value (DRC-1; 180'; concentration 20) was 24.5599% and the “% inhibition apPOL 180'” value (DRC-1; 180'; concentration 40) was 40.1737%. For the same molecule, the “% inhibition apPOL 180'” value (DRC-1; 180'; concentration 80) was 53.133%, the “% inhibition Apo pol 5'” value (DRC-2, 5', concentration 2.5) was 8% and the “% inhibition Apo pol 5'” value (DRC-2, 5', concentration 5) was 8.46%. The “% inhibition Apo pol 5'” value (DRC-2, 5', concentration 10) was 25%, the “% inhibition Apo pol 5'” value (DRC-2, 5', concentration 20) was 36% and the “% inhibition Apo pol 5'” value (DRC-2, 5', concentration 40) was 51%. The “% inhibition Apo pol 5'” value (DRC-2, 5', concentration 80) was 55%, the “% inhibition Apol 40'” value (DRC-2, 40', concentration 2.5) was 9% and the “% inhibition Apol 40'” value (DRC-2, 40', concentration 5) was 9%. For the same molecule, the “% inhibition Apol 40'” value (DRC-2, 40', concentration 10) was 26%, the “% inhibition Apol 40'” value (DRC-2, 40', concentration 20) was 40% and the “% inhibition Apol 40'” value (DRC-2, 40', concentration 40) was 62%. The “% inhibition Apol 40'” value (DRC-2, 40', concentration 80) was 73%, the “% inhibition ApPOL 90'” value (DRC-2, 90', concentration 2.5) was 8% and the “% inhibition ApPOL 90'” value (DRC-2, 90', concentration 5) was 9%. For the same molecule, the “% inhibition ApPOL 90'” value (DRC-2, 90', concentration 10) was 26%, the “% inhibition ApPOL 90'” value (DRC-2, 90', concentration 20) was 39% and the “% inhibition ApPOL 90'” value (DRC-2, 90', concentration 40) was 63%. The “% inhibition ApPOL 90'” value (DRC-2, 90', concentration 80) was 75%, the “% inhibition apPOL 180'” value (DRC-2, 180', concentration 2.5) was 6% and the “% inhibition apPOL 180'” value (DRC-2, 180', concentration 5) was 9%. The “% inhibition apPOL 180'” value (DRC-2, 180', concentration 10) was 24%, the “% inhibition apPOL 180'” value (DRC-2, 180', concentration 20) was 36% and the “% inhibition apPOL 180'” value (DRC-2, 180', concentration 40) was 59%. The “% inhibition apPOL 180'” value (DRC-2, 180', concentration 80) was 74%, the “% inhibition Apo pol 5'” value (conc 2.5 (unit not given); 5'; DRC-2) was 8% and the “% inhibition Apol 40'” value (conc 2.5 (unit not given); 40'; DRC-2) was 9%. For the same molecule, the “% inhibition ApPOL 90'” value (conc 2.5 (unit not given); 90'; DRC-2) was 8%, the “% inhibition Apol 40'” value (conc 5 (unit not given); 40'; DRC-2) was 9% and the “% inhibition ApPOL 90'” value (conc 5 (unit not given); 90'; DRC-2) was 9%. For the same molecule, the “% inhibition apPOL 180'” value (conc 5 (unit not given); 180'; DRC-2) was 9%, the “% inhibition Apol 40'” value (conc 10 (unit not given); 40'; DRC-2) was 26% and the “% inhibition ApPOL 90'” value (conc 10 (unit not given); 90'; DRC-2) was 26%. For the same molecule, the “% inhibition Apo pol 5'” value (conc 20 (unit not given); 5'; DRC-2) was 36%, the “% inhibition apPOL 180'” value (conc 20 (unit not given); 180'; DRC-2) was 36% and the “DNA Pol” value (primary screen hit value, DNA Pol (186 hits); 90 min, 10 µM) was 40.

Molecule `O=C(Cn1ccc2c(=O)[nH]ccc21)Nc1cc(F)ccc1F` [Molecule 42] has an IC50 (supplemental file 2, sheet IC50 nontoxic compounds; Pf-apPOL) of 12.7 µM.
